The target of test [1] is T1, Human Calpain 9/NS1 (Homo sapiens, UniProt O14815).
T1 sequence (O14815 1-690): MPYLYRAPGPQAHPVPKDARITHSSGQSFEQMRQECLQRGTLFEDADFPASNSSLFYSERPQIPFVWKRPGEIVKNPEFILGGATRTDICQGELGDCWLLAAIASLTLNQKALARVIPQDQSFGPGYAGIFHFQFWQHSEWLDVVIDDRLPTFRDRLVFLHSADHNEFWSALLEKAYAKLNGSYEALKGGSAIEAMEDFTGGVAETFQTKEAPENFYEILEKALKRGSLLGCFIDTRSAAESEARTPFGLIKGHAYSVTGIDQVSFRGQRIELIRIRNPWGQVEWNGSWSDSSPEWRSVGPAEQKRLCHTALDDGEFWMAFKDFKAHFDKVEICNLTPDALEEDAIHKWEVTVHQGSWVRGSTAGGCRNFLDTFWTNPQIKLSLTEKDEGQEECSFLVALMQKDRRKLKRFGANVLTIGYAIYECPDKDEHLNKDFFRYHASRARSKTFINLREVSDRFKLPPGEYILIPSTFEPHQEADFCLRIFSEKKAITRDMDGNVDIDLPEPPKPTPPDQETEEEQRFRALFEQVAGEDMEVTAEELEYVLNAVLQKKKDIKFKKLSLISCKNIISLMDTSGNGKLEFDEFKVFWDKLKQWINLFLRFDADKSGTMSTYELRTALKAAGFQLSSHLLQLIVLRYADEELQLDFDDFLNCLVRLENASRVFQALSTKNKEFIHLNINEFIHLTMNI
T1 sequence (P04632 1-268 partner): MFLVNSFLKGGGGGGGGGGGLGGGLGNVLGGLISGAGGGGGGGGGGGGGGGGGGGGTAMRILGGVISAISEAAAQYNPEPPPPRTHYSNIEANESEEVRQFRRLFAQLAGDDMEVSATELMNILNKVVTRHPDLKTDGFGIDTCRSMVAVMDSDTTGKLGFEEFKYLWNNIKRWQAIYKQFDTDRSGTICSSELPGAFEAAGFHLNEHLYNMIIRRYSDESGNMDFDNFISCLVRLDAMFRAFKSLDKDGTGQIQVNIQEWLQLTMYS
Description: Biochemical inhibition of Calpain 9, continuous fluorescence (FRET) assay. The following applies: mean; class symbols; read-out: Human Calpain 9/NS1 IC50 (nM)_MEAN. The procedure:
(§1) Biochemical inhibition of Calpains 1, 2, and 9.
(§2) Calpains 1, 2, and 9 activity and inhibition thereof are assessed by means of a continuous fluorescence assay. The SensoLyte 520 Calpain substrate (Anaspec Inc) is optimized for detecting calpain activity. This substrate contains a novel internally quenched 5-FAM/QXLTM 520 FRET pair. Calpains 1, 2 and 9 cleave the FRET substrate into two separate fragments resulting in an increase of 5-FAM fluorescence that is proportional to calpain activity.
(§3) Assays are typically setup in black 384-well plates using automated liquid handling as follows. Calpain assay base buffer typically contains 50 mM Tris, pH 7.5, 100 mM NaCl and 1 mM DTT. Inhibitors are serially diluted in DMSO and used to setup 2× mixtures with calpains in the aforementioned buffer. After incubation at ambient temperature (25 C), the reaction is initiated by adding a 2× mix of the fluorescent peptide substrate and CaCl2 (required for in-situ calpain activation) in the same buffer. Reaction progress curve data are typically collected for 10 min using excitation/emission wavelengths of 490 nm/520 nm on SpectraMax i3x or the FLIPR-Tetra plate readers (Molecular Devices Inc). Reaction rates were calculated from progress curve slopes typically over 1-5 min. Dose response curves (rate vs. log inhibitor concentration) were typically fit to a 4-parameter logistic function to extract IC50 values.
Column C: Human Calpain 9/NS1 IC50 (nM)_MEAN • A: <3 uM; • B: 3-10 uM; • C: >10 uM;

Test [2] addresses T2, Human Calpain 2/NS1 (Homo sapiens, UniProt P17655).
T2 sequence (P17655 1-700): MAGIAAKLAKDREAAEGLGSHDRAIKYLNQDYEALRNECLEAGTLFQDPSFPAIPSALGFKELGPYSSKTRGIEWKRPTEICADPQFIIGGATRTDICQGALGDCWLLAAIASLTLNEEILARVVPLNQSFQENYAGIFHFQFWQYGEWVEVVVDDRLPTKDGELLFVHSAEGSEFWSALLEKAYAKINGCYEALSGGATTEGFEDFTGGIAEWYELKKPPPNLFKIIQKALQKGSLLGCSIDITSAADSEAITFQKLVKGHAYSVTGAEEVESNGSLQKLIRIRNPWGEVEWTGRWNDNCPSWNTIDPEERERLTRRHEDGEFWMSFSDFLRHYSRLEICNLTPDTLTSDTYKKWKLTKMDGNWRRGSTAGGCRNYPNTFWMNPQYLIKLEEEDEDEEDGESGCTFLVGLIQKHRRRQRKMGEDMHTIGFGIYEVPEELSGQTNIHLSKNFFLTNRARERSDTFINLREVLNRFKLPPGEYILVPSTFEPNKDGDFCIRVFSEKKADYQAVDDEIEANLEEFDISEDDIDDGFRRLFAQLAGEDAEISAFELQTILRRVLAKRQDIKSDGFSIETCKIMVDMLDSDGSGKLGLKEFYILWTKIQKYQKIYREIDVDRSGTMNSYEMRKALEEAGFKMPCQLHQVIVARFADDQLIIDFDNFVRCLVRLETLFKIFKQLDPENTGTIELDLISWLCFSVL
T2 sequence (P04632 1-268 partner): T1 sequence (P04632 1-268 partner)
Briefly: Biochemical inhibition of Calpain 2, continuous fluorescence (FRET) assay. Particulars: mean; class symbols; read-out: Human Calpain 2/NS1 IC50 (nM)_MEAN. As to the method:
as §1, §2, §3
Column B: Human Calpain 2/NS1 IC50 (nM)_MEAN

Test [3] concerns the target T3, Human Calpain 1/NS1 (Homo sapiens, UniProt P07384).
T3 sequence (P07384 1-714): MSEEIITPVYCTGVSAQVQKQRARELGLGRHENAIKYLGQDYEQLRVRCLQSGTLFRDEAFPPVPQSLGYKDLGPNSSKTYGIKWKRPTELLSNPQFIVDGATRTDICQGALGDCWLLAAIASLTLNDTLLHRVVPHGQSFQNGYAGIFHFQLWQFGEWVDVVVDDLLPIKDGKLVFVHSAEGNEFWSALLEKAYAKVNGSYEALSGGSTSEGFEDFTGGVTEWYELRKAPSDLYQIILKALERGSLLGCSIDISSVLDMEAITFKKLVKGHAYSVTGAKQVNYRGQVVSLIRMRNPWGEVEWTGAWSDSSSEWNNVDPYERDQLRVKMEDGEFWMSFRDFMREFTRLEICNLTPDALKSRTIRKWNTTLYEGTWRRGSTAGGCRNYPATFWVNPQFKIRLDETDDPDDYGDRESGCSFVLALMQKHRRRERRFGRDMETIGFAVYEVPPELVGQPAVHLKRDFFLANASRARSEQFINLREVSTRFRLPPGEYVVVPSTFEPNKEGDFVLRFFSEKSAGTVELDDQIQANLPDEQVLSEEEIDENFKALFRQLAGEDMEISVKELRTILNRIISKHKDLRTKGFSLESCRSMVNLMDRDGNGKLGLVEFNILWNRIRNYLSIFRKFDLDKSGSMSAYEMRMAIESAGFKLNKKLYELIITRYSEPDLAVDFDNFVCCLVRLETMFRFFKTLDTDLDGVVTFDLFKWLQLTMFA
T3 sequence (P04632 1-268 partner): T1 sequence (P04632 1-268 partner)
Description: Biochemical inhibition of Calpain 1, continuous fluorescence (FRET) assay. The following applies: mean; class symbols; read-out: Human Calpain 1/NS1 IC50 (nM)_MEAN. The procedure: as §1, §2, §3
Column A: Human Calpain 1/NS1 IC50 (nM)_MEAN

Each structure is given as a SMILES string.

`CC(C)[C@H](NC(=O)OCc1ccccc1)C(=O)NC1CCCNC(=O)C1=O` (stereo partly drawn) [Compound 1]: the IC50 in test [1] is over 10000 nM; in test [2], 3000 to 10000 nM; in test [3], 3000 to 10000 nM.

With `CC(C)C[C@H](NC(=O)[C@@H](NC(=O)OCc1ccccc1)C(C)C)C(=O)NC1CCCNC(=O)C1=O` (stereo partly drawn) [Compound 2], the IC50 was over 10000 nM in test [1], 3000 to 10000 nM in test [2] and over 10000 nM in test [3].

For `CC(C)[C@H](NS(=O)(=O)c1ccc(F)cc1)C(=O)NC1CCCNC(=O)C1=O` (stereo partly drawn) [Compound 3], the IC50 in test [1], in test [2] and in test [3] was over 10000 nM throughout.

As for `CC(C)[C@H](NC(=O)OCc1ccccc1)C(=O)NC1CCCCCCNC(=O)C1=O` (stereo partly drawn) [Compound 4], the IC50 in test [1], in test [2] and in test [3] was under 3000 nM each time.

With `CC(C)[C@H](NC(=O)OCc1ccccc1)C(=O)NC1CCNC(=O)C1=O` (stereo partly drawn) [Compound 5], the IC50 in test [1], in test [2] and in test [3] was over 10000 nM in each case.

Consider `CC(C)[C@H](NC(=O)OCc1ccccc1)C(=O)NC1CCCN(C)C(=O)C1=O` (stereo partly drawn) [Compound 6], for which the IC50 in test [1], in test [2] and in test [3] was over 10000 nM throughout.

`O=C1NCCCCCC[C@H](NC(=O)c2ccccc2-c2ccccc2)C1=O` [Compound 8]: the IC50 was under 3000 nM in test [1], under 3000 nM in test [2] and 3000 to 10000 nM in test [3].

For the molecule `CC(C)[C@H](NC(=O)OCc1ccccc1)C(=O)N[C@H]1CCCCCCCNC(=O)C1=O` [Compound 9], the IC50 in test [1], in test [2] and in test [3] was under 3000 nM in each case.

For the origin of these results see patent publication US10590084B2, “Cyclic keto-amide compounds as calpain modulators and methods of production and use thereof” (Blade Therapeutics, Inc., priority 2016, dated 2020).
